Data: the supplement of paper PMC10307832

Assays:
Test in all cases: relative viability (nuclei count vs DMSO), 5 days (fraction); higher = more cells survive
[1] = compound: CCOc1cc2ncc(C#N)c(Nc3ccc(OCc4ccccn4)c(Cl)c3)c2cc1NC(=O)/C=C/CN(C)C [Neratinib] + Nc1ncn([C@H]2C[C@H](O)[C@@H](CO)O2)c(=O)n1 [Decitabine] (partner 2 µM)
Procedure, shortened: (§1)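 One day after seeding in 1536-well plates, lung cancer cell lines were dosed by pin tool. Dosing was either single-drug or a fixed anchor-drug dose plus five library-drug doses (not always all listed) in √10 steps. After 5 days, nuclei were stained in one fix-and-stain step and counted on 4× images, and relative viability is the nuclei count of treated wells over that of vehicle wells, given as the median of duplicate plates.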

[2] = compound: CCOc1cc2ncc(C#N)c(Nc3ccc(OCc4ccccn4)c(Cl)c3)c2cc1NC(=O)/C=C/CN(C)C [Neratinib] + Cc1nc(NC(=O)N2CCC[C@H]2C(N)=O)sc1-c1ccnc(C(C)(C)C(F)(F)F)c1 [Alpelisib] (partner 2 µM)
Procedure, shortened: as §1

[3] = compound: CCOc1cc2ncc(C#N)c(Nc3ccc(OCc4ccccn4)c(Cl)c3)c2cc1NC(=O)/C=C/CN(C)C [Neratinib] + C[C@]1(O)C[C@@H](c2nc(-c3ccc4ccc(-c5ccccc5)nc4c3)c3c(N)nccn32)C1 [Linsitinib] (partner 1 µM)
Procedure, shortened: as §1

[4] = compound: CCOc1cc2ncc(C#N)c(Nc3ccc(OCc4ccccn4)c(Cl)c3)c2cc1NC(=O)/C=C/CN(C)C [Neratinib] + CS(=O)(=O)N1CCN(Cc2cc3nc(-c4cccc5[nH]ncc45)nc(N4CCOCC4)c3s2)CC1 [Pictilisib] (partner 1 µM)
Procedure, shortened: as §1

Row | Cell Line | relative viability ([1]; first compound 0.01 µM) | relative viability ([1]; first compound 0.03162 µM) | relative viability ([1]; first compound 0.1 µM) | relative viability ([1]; first compound 0.3162 µM) | relative viability ([1]; first compound 1 µM) | relative viability ([2]; first compound 0.01 µM) | relative viability ([2]; first compound 0.03162 µM) | relative viability ([2]; first compound 0.1 µM) | relative viability ([2]; first compound 0.3162 µM) | relative viability ([2]; first compound 1 µM) | relative viability ([3]; first compound 0.01 µM) | relative viability ([3]; first compound 0.03162 µM) | relative viability ([3]; first compound 0.3162 µM) | relative viability ([3]; first compound 1 µM) | relative viability ([4]; first compound 0.01 µM) | relative viability ([4]; first compound 0.03162 µM) | relative viability ([4]; first compound 0.1 µM) | relative viability ([4]; first compound 0.3162 µM) | relative viability ([4]; first compound 1 µM) | relative viability ([3]; first compound 0.1 µM)
1 | LCLC-103H | 0.772 | 0.8 | 0.585 | 0.761 | 0.7 | 1 | 1 | 0.711 | 0.966 | 0.629 | 1.21 | 0.975 | 0.961 | 0.814 | 0.597 | 0.668 | 0.575 | 0.582 | 0.587 | 
2 | NCI-H3122 | 0.365 | 0.544 | 0.488 | 0.457 | 0.364 | 0.951 | 0.746 | 0.586 | 0.829 | 0.299 | 1.05 | 0.993 | 1.02 | 0.256 | 0.634 | 0.589 | 0.474 | 0.619 | 0.214 | 1.04
3 | HCC-15 | 0.684 | 0.703 | 0.646 | 0.662 | 0.597 | 0.931 | 0.92 | 0.864 | 0.859 | 0.584 | 0.894 | 0.913 | 0.81 | 0.551 | 0.824 | 0.809 | 0.712 | 0.781 | 0.618 | 0.776
4 | SW 1573 | 0.466 | 0.628 | 0.574 | 0.507 | 0.265 | 0.94 |  | 0.591 | 0.577 | 0.515 | 0.742 | 0.89 | 0.782 | 0.642 | 0.523 | 0.586 | 0.399 | 0.508 | 0.249 | 0.778
5 | NCI-H1944 | 0.458 | 0.482 | 0.423 | 0.389 | 0.39 | 0.948 | 0.782 | 0.615 | 0.561 | 0.393 | 1.28 | 1.08 | 0.645 | 0.435 | 0.387 | 0.341 | 0.193 | 0.31 | 0.266 | 0.93
6 | HARA | 0.573 | 0.493 | 0.414 |  | 0.476 |  | 0.813 | 0.545 | 0.385 | 0.264 | 0.94 | 0.91 | 0.338 | 0.182 | 0.494 | 0.294 | 0.362 | 0.262 | 0.336 | 0.356
7 | LXF-289 | 0.382 | 0.396 | 0.39 | 0.349 | 0.421 | 1.03 | 1.04 | 0.974 | 0.98 | 0.765 | 0.998 | 1.01 | 0.98 | 0.789 | 0.785 | 0.821 |  | 0.759 | 0.418 | 0.913
8 | NCI-H520 | 0.604 | 0.547 |  |  | 0.46 | 0.955 | 1.14 | 0.905 | 0.819 | 0.547 | 1.04 | 0.981 | 0.742 |  | 0.297 | 0.377 | 0.222 | 0.215 | 0.188 | 1.08
9 | NCI-H1395 | 0.681 | 0.807 | 0.749 | 0.769 | 0.559 | 1.07 | 1.17 | 1.06 | 1.07 | 0.729 | 1.13 | 1.24 | 1.2 | 0.619 | 0.595 | 0.679 | 0.602 | 0.659 | 0.449 | 0.991
10 | NCI-H2023 | 0.245 | 0.232 | 0.206 | 0.217 | 0.376 | 0.62 | 0.611 | 0.511 | 0.445 | 0.298 | 0.658 | 0.675 | 0.446 | 0.303 | 0.209 | 0.233 | 0.233 | 0.228 | 0.177 | 0.465
